# Entries after “also recorded” stand apart in the source; their conditions may differ.
# Columns and labels:
# [1] = system: CD3ϵ peptide/Nck1-SH3.1 interaction; test: SPR competition with CD3ϵ peptide on immobilized Nck1-SH3.1; assay type: binding, human; conditions: 100 μM AX-024 co-injected with 100 μM CD3ϵ peptide
# Protocol: SPR experiments were conducted on a T200 Biacore instrument (GE Healthcare, Uppsala, Sweden) at 20 °C in 10 mM HEPES/NaOH, pH 7.8, 150 mM NaCl, 1 mM TCEP. His10-Avi-TEV-Nck1-SH3.1 (residues 1–61, MM 11,847 Da) was biotinylated and immobilized via streptavidin on the surface of either a CAP or a SA sensor, prepared according to the manufacturer's instructions (GE Healthcare). Streptavidin is immobilized on the CAP sensor by way of double-strand DNA formation. A ssDNA is covalently coupled to the sensor surface, and a complementary DNA strand, covalently linked to streptavidin, is hybridized. To regenerate the surface, the DNA duplex is dissociated by washing with high-ionic strength solution. Thus, after each titration, fresh biotinylated Nck1-SH3.1 was immobilized on the sensor surface. For CD3ϵ peptide-binding experiments, the surface density of the Nck1-SH3.1 domain was ∼250 response units (RU), whereas for binding experiments with AX-024 and APVA variant peptides, the surface density of Nck1-SH3.1 was increased to 1260 RU. […]
# Binding of the CD3ϵ-derived peptide […]-NH2 (CD3ϵ residues 173–188; MM 1864.1 Da) or of the APVA variant […]-NH2 (MM 1811.1 Da) to the immobilized Nck1-SH3.1 domain was monitored in a concentration-dependent manner between 0.4 and 100 μM CD3ϵ peptide (200 μM in the case of the APVA variant peptide). […]
# [2] = system: P-Zap70 in primary T cells; test: Zap70 phosphorylation in primary T cells, flow cytometry; assay type: cell-based, human
# Protocol: Figure 4. […] Healthy donor PBMCs were isolated rested overnight and pretreated with 20 μM AX-024 or vehicle prior to stimulation with 20 μg·ml^−1 (A) or 10 μg·ml^−1 (B) anti-CD3. The cells were gated on live cells, CD3, and CD4 for assessment of P-Zap70. Error bars, S.D.
# Human PBMCs from healthy donors were prepared from 50 ml of fresh blood with Ficoll in Leucosep tubes. The tubes were centrifuged at room temperature (30 min, 800 × g) without brake. Isolated cells were washed and staved overnight. The cells were treated with AX-024 or vehicle and incubated for 1 h at 37 °C followed by further incubation on ice. 10, 25, or 50 μg·ml^−1 anti-CD3-biotin (clone OKT3, BioLegend) was added to the cells on ice for 15 min before neutravidin was added at a final concentration of 20 μg·ml^−1 for cross-linking. After stimulation for 3 min at 37 °C, cells were fixed (BD Cytofix fixation buffer) and permeabilized (TruePhos buffer, BioLegend). Staining was performed with CD3-PerCP (clone SK7, BD), CD4-BUV395 (clone SK3, BD), CD8-BV605 (clone RPAT8, BioLegend), and Zap70-PE (clone 65E4, CST). Flow cytometry and data analysis were done as described above.
# dimeric Nck1-SH3.1 = test: Ligand-observed NMR with dimeric Nck1-SH3.1; assay type: binding, human; conditions: 50 μM ligand, 10 μM dimeric Nck1-SH3.1 (residues 1–61), pH 6.5, 150 mM NaCl, 27 °C
# Protocol: NMR spectra were recorded on a Bruker 600-MHz Avance NEO spectrometer equipped with a cryogenic QCI probe head at 27 °C in 25 mM […], 150 mM NaCl. The Topspin 4.0 software (Bruker, Fällanden) was used for spectrometer operation and data processing. For ^1H ligand-observed measurements, a relaxation filtered pulse sequence utilizing a spinlock of 50 ms was applied. 1D spectra were acquired with 128 scans, a sweep width of 26 ppm, and an acquisition time of 2 s. 2D ^1H-^15N HSQC spectra with natural ^15N isotope abundance were recorded over 72 h with a spectral width of 16 ppm and 35 ppm in the proton and nitrogen dimensions, respectively, with 256 increments (complex) and 1000 scans per increment. A relaxation delay of 1 s was used between scans. For the DOSY measurements (reviewed in Ref. [51]), the Bruker pulse sequence ledbpgp2s with a diffusion delay of 50 ms and a gradient length of 600 μs was used. The gradient strength was varied from 5 to 95% to record 16 increments of 512 scans with a sweep width of 18 ppm and a relaxation delay of 1 s.
# Samples for ligand-observed measurements were prepared in 25 mM sodium phosphate buffer, pH 6.5, 150 mM NaCl. One sample contained 50 μM AX-024, and the other contained 50 μM CD3ϵ peptide.
# Nck1-SH3.1 = biological target: T1, Nck1-SH3.1 (Homo sapiens, UniProt P16333); test: SPR binding to immobilized Nck1-SH3.1; conditions: AX-024 up to 100 μM; 1260 RU; 20 °C, pH 7.8
# T1 construct: His10-Avi-TEV-Nck1-SH3.1 (residues 1–61, MM 11,847 Da) was biotinylated and immobilized via streptavidin; made in house; host or cells: Escherichia coli BL21 (DE3)
# Protocol: SPR experiments were conducted on a T200 Biacore instrument (GE Healthcare, Uppsala, Sweden) at 20 °C in 10 mM HEPES/NaOH, pH 7.8, 150 mM NaCl, 1 mM TCEP. […] Streptavidin is immobilized on the CAP sensor by way of double-strand DNA formation. A ssDNA is covalently coupled to the sensor surface, and a complementary DNA strand, covalently linked to streptavidin, is hybridized. To regenerate the surface, the DNA duplex is dissociated by washing with high-ionic strength solution. […] The reference channel for binding studies contained the same streptavidin-coated surface blocked with biotin.
# Five replicates were performed for each CD3ϵ concentration (Table S1), whereas for the qualitative assessment of the APVA variant, only a single titration was performed.
# SPR equilibrium signals were corrected for the signal in the reference channel and buffer contributions. The resulting SPR amplitudes were plotted as a function of peptide concentration, and a simple binding equation describing a Langmuir adsorption isotherm was fit to the data (GraphPad Prism) to extract the equilibrium dissociation constant Kd. (Eq. 1) RU=RUmax·[peptide]/[peptide]+Kd
smiles,measurement,setting,value
"COc1ccc2c(c1)C(c1ccc(F)cc1)=C(CN1CCCC1)CO2.Cl [AX-024, 1-((4-(4-fluorophenyl)-6-methoxy-2H-chromen-3-yl)methyl)pyrrolidine hydrochloride]",effect on binding of CD3ϵ peptide to Nck1-SH3.1 (competition),[1],unaffected by AX-024; also recorded: failed to show an effect on binding of CD3ϵ to immobilized Nck1-SH3.1
same,reduction of Zap70 phosphorylation,"[2]; PBMCs from healthy donors, 20 μM AX-024 pretreatment, 20 or 10 μg·ml^−1 anti-CD3, gated on live, CD3, CD4",does not significantly reduce Zap70 phosphorylation
same,reduction of Zap70 phosphorylation,"[2]; different stimulation conditions, low anti-CD3, no co-stimulation",none of the conditions tested resulted in significant reduction of Zap70 phosphorylation
same,"ligand-observed NMR, spectral change / line broadening",dimeric Nck1-SH3.1,do not show any spectral changes; also recorded: no interaction was observed
same,direct binding to immobilized Nck1-SH3.1 by SPR,Nck1-SH3.1,does not bind to Nck1-SH3.1; also recorded: no direct binding of AX-024 to immobilized Nck1-SH3.1 was detectable
